What all share (assay type): cell-based
One data set deals with T1, OR7C1 (Homo sapiens, UniProt O76099).
T1 construct: transfected with a plasmid containing the CRE-luciferase and a plasmid containing the olfactory receptor; expressed in transfected cells; host or cells: HEK293T-RTP1A1/RTP2 (HEK293T stably expressing the chaperones RTP1A1 and RTP2)
T1 sequence (O76099 1-320): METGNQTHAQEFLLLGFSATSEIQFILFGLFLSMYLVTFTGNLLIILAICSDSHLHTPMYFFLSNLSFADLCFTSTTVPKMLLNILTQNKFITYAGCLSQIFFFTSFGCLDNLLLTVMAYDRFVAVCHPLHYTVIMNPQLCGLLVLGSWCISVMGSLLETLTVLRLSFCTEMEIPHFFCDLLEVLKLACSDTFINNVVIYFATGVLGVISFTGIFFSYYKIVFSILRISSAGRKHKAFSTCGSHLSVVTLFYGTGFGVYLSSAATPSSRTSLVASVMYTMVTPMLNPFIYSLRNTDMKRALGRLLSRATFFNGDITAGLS
Kind of data set: Luciferase-based CRE gene reporter assay, dose-response on OR7C1. As to conditions: negative logarithm of the EC50 in Moles; semi-logarithmic dilutions from 1 mM to 316 nM on OR7C1; read-out: -LogEC50 (average n > 3) (converted). The protocol: HEK293T-RTP1A1/RTP2 cells were maintained in minimal essential medium (EMEM, Lonza) containing 10% fetal bovine serum (M10). These cells were generated by transfecting HEK293T (Thermofisher Scientific, cat ref: R70007) with an expression vector containing the sequences of the chaperone proteins RTP1A1 and RTP2 and a resistance gene to puromycin, using Lipofectamine 2000. The recombinant cell population, used in these experiments, was selected by adding 10 μg/ml of puromycin into the culture medium and subsequently subcloned (WO 2014/191047 A1).
Potential OR7C1 agonists were diluted at a concentration of 1 mole/liter (M) into an organic solvent such as Dimethyl Sulfoxide (DMSO) or Ethanol to generate stock solutions. […]
For concentration-response analysis, serial dilutions of the tested molecules were prepared from stock solutions in EMEM plated into 96-well plates.
For the dose-response analysis, a Luciferase-based gene reporter assay (Promega, Leiden, the Netherlands) was used. Briefly, cells were platted on poly-D-lysine-coated 96-well plates and transfected with a plasmid containing the CRE-luciferase and a plasmid containing the olfactory receptor. Sixteen hours after transfection, the culture medium was replaced by serum-free EMEM containing the tested compounds at a determined concentration. After four hours of incubation at 37° C., cells were lysed and processed for luminescence measurement. Luminescence emission was recorded. Results were expressed as luciferase activity ([…] (RLU)) or as percentage of the response induced by 10 μM of the adenylate cyclase activator Forskolin. An empty plasmid is used as negative control.
Dose-response analyses using the luciferase-based reporter assay were performed using semi-logarithmic serial dilutions of the compounds, from 1 mM to 316 nM, on OR7C1. 46 compounds were tested in concentration-response analyses. In each experiment, an empty vector (pEFIBRHO) was used as negative control. Values are given as the negative logarithm of the EC50 in Moles.

Data set [1] has as its system Normal Human Epidermal Melanocytes moderately pigmented (NHEMs-MP). Kind of data set: MTS cytotoxicity test on NHEMs-MP. The following applies: 4 days of treatment, 5 concentrations, threshold 80% viability. The protocol: (§1) This primary culture was cultivated in medium M254 supplemented (LIFE TECHNOLOGIES; ref:M-254-500) with HMGS (human melanocyte growth supplement; LIFE TECHNOLOGIES; ref: S-002-5) and gentamycin (LIFE TECHNOLOGIES; ref:15710-049) and maintained in a humidified incubator at 37° C. with a 5% CO2 atmosphere. For experiments (see below), cells were seeded at a density of 9×10^4 cells/well (100 μL/well) and cultured at 37° C. under a 5% CO2.
NHEMs moderately pigmented (NHEMs-MP) were seeded in 24-wells plates at a density of 9×10^4 cells/well, 72 h before the treatment with the different concentrations of 2 different compounds according to embodiments of the invention. After 2 days of treatment with these compounds, compounds were re-applied for 2 additional days according to the experimental scheme as shown in FIG. 1. Sodium dodecyl sulfate (SDS) at 0.05% was used as cytotoxicity positive control in order to validate the experiment. […]
An MTS assay (3-(4,5-dimethythiazol-2-yl)-5-(3-carboxymethoxyphenyl)-2-(4-sulfophenyl)-2H-tetrazolium) was performed to measure the maximal concentrations the compounds which can be used in the culture medium of NHEMs-MP without affecting cell viability. […] Cell viability was analyzed, and toxicity/viability was expressed in percentage relative to the ethanol treated condition which was fixed at 100%. […]
A general note: Tetrazolium assays rely on reduction of a dye to a coloured formazan, in cell work by metabolically active cells.

Data set [2] has the same test system. Kind of data set: Melanin content (pigmentation) of NHEMs-MP in culture. The protocol: as §1
The NHEMs-MP were treated for 4 days, with a medium refresh after 2 days of treatment—Amberketal, Ambermax and with the reference molecule (L-DOPA)—when the culture media are collected and stored at −80° C. as shown in FIG. 2. At the end of the treatments, the culture media were collected a second time, pooled with the media collected at day 2 and centrifuged for 30 minutes (14000 rpm). The pellet obtained after centrifugation and NHEMs-MP treated cells were lysed in 150 μl of a NaOH 1M solution. 5 μl of each cell lysate were used for protein quantification using BCA protein assay. The remaining 145 μl of the lysates were heated at 80° C. during 1 h. The optical density was measured at 490 nm and the melanin content was determined by comparison with a standard curve of synthetic melanin and reported to the quantity of protein present in each cell well tested.
The effects of these 2 compounds, namely Ambermax and Amberketal, on the melanin production were evaluated as described above. Based on MTS results, moderately pigmented (MP) NHEMs were treated with these 2 compounds at one concentration (100 μM for Amberketal and 3.16 μM for Ambermax) for 4 days. In parallel, cell cultures were also treated with Ethanol 0.1%, a concentration corresponding to the test compounds solvent, and with a known modulator of pigmentation (L-DOPA 50 μM). […] At the end of the treatments (D4), cells were lysed, the melanin content was quantified by spectrophotometry and normalized to the amount of proteins. Extracellular melanin was also evaluated by the same methodology after centrifugation of the culture media.

Take `CC(=O)C1(C)CCC2=C(C1C)C(C)(C)CCC2` (stereo not drawn) [Compound 4, Georgywood]: at OR7C1, the EC50 is 25.1 µM. Besides, the “cell toxicity (MTS, viability relative to ethanol treated condition)” value in data set [1] is on record as “no significant cell toxicity”.
`CC12CCC3C(CCC4C(C)(C)CCCC43C)(CO1)O2` (stereo not drawn) [Compound 17, Amberketal]: the EC50 at OR7C1 is 2.51 µM. Also, the “increase of melanin present in the media (extracellular)” value in data set [2] (100 μM, 4 days, NHEMs-MP, in comparison with DOPA (50 μM), p<0.01, n=10) was “+99%”. In addition, in data set [2] (100 μM, 4 days, NHEMs-MP, in comparison with DOPA (50 μM), p<0.01, n=12), the “increase of intracellular melanin content” value is reported as “+40%”.
Turning to `N[C@@H](Cc1ccc(O)c(O)c1)C(=O)O` [L-DOPA, 3,4-dihydroxyphenylalanine, reference compound], the “melanin content in NHEMs” value in data set [2] (50 μM, 4 days of treatment) is listed as “enhanced slightly the melanin content”.

The record behind these values is patent US20240058240A1, “COMPOUNDS AS SELF-TANNING SUBSTANCES AND TANNING COMPOSITIONS THEREOF” (CHEMCOM S.A., priority 2020, published 2024).
